# Measurements reported in ChEMBL document CHEMBL3259552, “Tetra-substituted imidazoles as a new class of inhibitors of the p53-MDM2 interaction” (Bioorg Med Chem Lett, 2014).
# Assays:
# [1] = biological target: E3 ubiquitin-protein ligase Mdm2 (Homo sapiens, UniProt Q00987); test: Inhibition of MDM2 (unknown origin) (2 to 188) assessed as inhibition of p53-MDM2 interaction by TR-FRET assay
# [2] = Antiproliferative activity against p53-deficient human Saos2 cells after 72 hrs by fluorescence plate reader analysis; assay type: functional, cell-based; conditions: SAOS-2, 72 h
# [3] = tested on: SJSA-1; test: Antiproliferative activity against human SJSA1 cells expressing wild-type p53 after 72 hrs by fluorescence plate reader analysis; assay type: functional, cell-based; conditions: SJSA-1, 72 h
# Sequence of E3 ubiquitin-protein ligase Mdm2 (Q00987 whole entry): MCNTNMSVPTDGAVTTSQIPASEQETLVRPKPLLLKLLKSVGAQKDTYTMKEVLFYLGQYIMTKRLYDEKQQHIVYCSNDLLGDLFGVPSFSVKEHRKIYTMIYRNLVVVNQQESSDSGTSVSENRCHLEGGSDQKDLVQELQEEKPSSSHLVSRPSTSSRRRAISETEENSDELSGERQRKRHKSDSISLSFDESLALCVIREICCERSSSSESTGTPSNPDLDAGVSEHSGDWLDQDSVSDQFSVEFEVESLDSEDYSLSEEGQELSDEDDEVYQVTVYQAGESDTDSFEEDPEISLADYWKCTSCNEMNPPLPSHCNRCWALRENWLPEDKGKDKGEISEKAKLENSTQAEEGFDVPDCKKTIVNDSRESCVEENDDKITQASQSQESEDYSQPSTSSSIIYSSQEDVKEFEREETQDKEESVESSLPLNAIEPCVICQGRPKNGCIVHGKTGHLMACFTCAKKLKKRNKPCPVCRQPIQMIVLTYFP
SMILES,IC50 [1],IC50 [3],IC50 [2]
O=C(O)c1nc(-c2ccccc2)n(-c2cccc(Cl)c2)c1-c1cccc(Cl)c1,0.12 µM,–,–
Cc1ccc(Cl)cc1-n1c(-c2ccccc2)nc(C(=O)O)c1-c1cccc(Cl)c1,–,16.1 µM,> 30 µM
O=C(O)c1nc(-c2ccccc2)n(-c2cccc(Cl)c2F)c1-c1cccc(Cl)c1,–,12.2 µM,> 30 µM
Cc1cccc(-c2nc(C(=O)O)c(-c3cccc(Cl)c3)n2-c2cc(Cl)ccc2C)c1,–,10.2 µM,> 30 µM
O=C(O)c1nc(-c2ccccc2)n(-c2cccc(Cl)c2F)c1-c1ccc(F)c(Cl)c1,–,14 µM,> 30 µM
CNC(=O)Cc1ccc(Cl)c(F)c1-n1c(C2CCCCC2)nc(-c2nnc(N)o2)c1-c1ccc(F)c(Cl)c1,–,1.4 µM,24 µM
Nc1nnc(-c2nc(C3CCCCC3)n(-c3c(CC(=O)Nc4ccccc4)ccc(Cl)c3F)c2-c2ccc(F)c(Cl)c2)o1,–,2.5 µM,30 µM
Nc1nnc(-c2nc(C3CCCCC3)n(-c3c(CC(=O)NC4CCCCC4)ccc(Cl)c3F)c2-c2ccc(F)c(Cl)c2)o1,–,1.4 µM,28 µM
CC(C)(C)NC(=O)Cc1ccc(Cl)c(F)c1-n1c(C2CCCCC2)nc(-c2nnc(N)o2)c1-c1ccc(F)c(Cl)c1,–,0.5 µM,23 µM

# The next lines start with results.
IC50 [1],IC50 [3],SMILES,IC50 [2]
–,13.2 µM,O=C(O)c1nc(C2CCCCC2)n(-c2cccc(Cl)c2F)c1-c1ccc(F)c(Cl)c1,> 30 µM
–,4.1 µM,NC(=O)c1nc(C2CCCCC2)n(-c2cccc(Cl)c2F)c1-c1ccc(F)c(Cl)c1,29 µM
–,4.4 µM,Fc1ccc(-c2c(-c3nnn[nH]3)nc(C3CCCCC3)n2-c2cccc(Cl)c2F)cc1Cl,> 30 µM
–,5.9 µM,Cc1nnc(-c2nc(C3CCCCC3)n(-c3cccc(Cl)c3F)c2-c2ccc(F)c(Cl)c2)o1,> 30 µM
–,3.5 µM,Nc1nnc(-c2nc(C3CCCCC3)n(-c3cccc(Cl)c3F)c2-c2ccc(F)c(Cl)c2)o1,> 30 µM
